Measured values from publication PMC5019375, “Characterization of Potent SMAC Mimetics that Sensitize Cancer Cells to TNF Family-Induced Apoptosis” (PLoS ONE, 2016).
Several values for one entry are separate records, joined by “and”; a condition that tells them apart may be missing. Identical values can stand only once. No end group written: not given here.

Experiments:
cIAP1-BIR2 = cIAP1-BIR2 (Homo sapiens, UniProt Q13490); experiment: FP competition assay, displacement of SMAC-rhodamine
Method: (§3) Solutions for assessing SMAC-rhodamine binding to various BIR domains were empirically optimized. […] For cIAP1-BIR3, the assay buffer was 25 mM Hepes [pH 7.5] containing 40 mM β-glycerol phosphate, 1 mM TCEP, and 0.005% Tween 20, typically with 20 nM SMAC-rhodamine. For cIAP1-BIR2, cIAP2-BIR2 and cIAP2-BIR3, assays were performed in 25 mM Hepes [pH 7.5] containing 1 mM TCEP and 0.005% Tween 20, typically with 20 nM SMAC-rhodamine.
(§4) For cIAP1-BIR2, assays were conducted using 25 mM Hepes [pH 7.5] containing 1 mM TCEP, 0.005% Tween 20, ~1 μM cIAP1-BIR2, and 20 nM SMAC-rhodamine. For cIAP1-BIR3, assays were performed using the same buffered solution, except 40 mM β-glycerol phosphate was added and the cIAP1-BIR3 concentration was reduced to 50 nM. For cIAP2-BIR2, assays included a buffer containing 25 mM Hepes [pH 7.5] containing 1 mM TCEP, 0.005% Tween 20, 1 μM cIAP2-BIR2, and 20 nM SMAC-rhodamine. […] IC50 values were determined with a nonlinear fit using Prism software. Ki values were determined from the IC50 values using an online program developed by Nikolovska-Coleska et al. [26].

[1] = tested on: PC-3 prostate cancer cells; experiment: Cytotoxicity assay, sensitization to LT-α (CellTiter-Glo); format: cell-based, human; set-up: key to LT-α EC50: IN: EC50 too weak to be determined
Method: (§1) Cellular cytotoxicity experiments were conducted in white 96-well flat bottom plates (Greiner Bio-One #655074). PC-3 prostate cancer cells were seeded into microtiter wells in 90 μL RPMI medium with 10% fetal calf serum and antibiotics at 5,000 cells per well, and then incubated overnight at 37°C with 5% CO2/95% air. The next day, compounds diluted into the same culture medium and added in 10 μL aliquots to achieve various final concentrations, maintaining a uniform total volume per well. Either TNF (at 10 nM final) or LT-α (at ~90 pM final) resuspended in 10 μL of RPMI with 10% fetal calf serum and antibiotics was added to wells or an equal volume of medium was applied for the control well. The plates were then further incubated for 24 h. Subsequently, cell viability was assessed by the addition of 25 μL per well of Cell-Titer-Glo reagent (Promega, Inc). Plates were read using a Luminoskan Ascent luminometer.
(§2) The cellular activity of cIAP1 and cIAP2 inhibitors was evaluated through experiments where cytotoxicity of a human prostate tumor cell line (PC-3) was assessed in the presence or absence of cytokines TNF and LT-α. The experimental approach we used was to provide TNF or LT-α at a fixed concentration, which by itself was non-cytotoxic, then titrate SMAC mimetics into the cell cultures. […] The compound series described in this work has been tested against a broad range of cell lines (data not shown and [23]) and single agent toxicity was only observed for SKOV3 ovarian tumor cells. This agrees with the findings of Varfolomeev, Vince and Lalaoui, respectively.

cIAP2-BIR3 = cIAP2-BIR3 (Homo sapiens, UniProt Q13489); experiment: FP competition assay, displacement of SMAC-rhodamine
Chain of cIAP2-BIR3 (Q13489 243-333): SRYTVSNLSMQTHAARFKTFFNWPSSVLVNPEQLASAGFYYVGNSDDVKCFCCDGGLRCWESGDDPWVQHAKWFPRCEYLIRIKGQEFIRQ
Method: as §3, §4

cIAP1-BIR3 = cIAP1-BIR3 (Homo sapiens, UniProt Q13490); experiment: as above; details: for binding affinity for cIAP1 and cIAP2 compared with XIAP: estimated by relative Ki values, cIAP1 and cIAP2 vs XIAP
Chain of cIAP1-BIR3 (Q13490 257-356): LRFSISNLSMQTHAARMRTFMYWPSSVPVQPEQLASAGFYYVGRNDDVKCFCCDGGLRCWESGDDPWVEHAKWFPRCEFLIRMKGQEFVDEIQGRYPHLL
Method: as §3, §4

cIAP2-BIR2 = cIAP2-BIR2 (Homo sapiens, UniProt Q13489); experiment: as above
Chain of cIAP2-BIR2 (Q13489 129-246): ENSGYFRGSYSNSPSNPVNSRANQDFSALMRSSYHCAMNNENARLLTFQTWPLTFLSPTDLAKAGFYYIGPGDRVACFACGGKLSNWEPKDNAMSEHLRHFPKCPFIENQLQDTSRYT
Method: as §3, §4

[2] = tested on: PC-3 prostate cancer cells; experiment: Cytotoxicity assay, sensitization to TNF (CellTiter-Glo); format: cell-based, human; set-up: key to TNF EC50: IN: EC50 too weak to be determined
Method: as §1, §2

[3] = cIAP1 BIR3 Ki, 25 mM Hepes pH 7.5, 1 mM TCEP, 0.005% Tween 20, 20 nM SMAC-rhodamine, 40 mM β-glycerol phosphate, ~50 nM protein, Ki calculated from IC50

Chain of cIAP1-BIR2 (Q13490 144-260): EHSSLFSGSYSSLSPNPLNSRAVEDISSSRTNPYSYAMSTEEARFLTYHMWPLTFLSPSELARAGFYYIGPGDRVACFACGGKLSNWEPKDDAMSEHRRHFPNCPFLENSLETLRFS

| Compound | Ki (cIAP1-BIR2) [µM] | Ki (cIAP2-BIR3) [nM] | Ki (cIAP1-BIR3; [3]) | Ki (cIAP2-BIR2) [µM] | further results |
| --- | --- | --- | --- | --- | --- |
| CN[C@@H](C)C(=O)N[C@H](C(=O)N1CCC[C@H]1C(=O)N[C@@H]1CCCc2ccccc21)C(C)C [compound 1] | 0.84 | 40 ± 10 | 20 nM | 2.34 | EC50 ([1]; Homo sapiens, representative curves, 90 pM LT-α, 24 h, CellTiter-Glo, read-out: EC50, sensitization of PC-3 tumor cells to LT-α (Fig 5b)): 19 nM; Ki (cIAP1-BIR3; Ki against cIAP1-BIR3, FP assay): 24 ± 1 nM; binding affinity for cIAP1 and cIAP2 compared with XIAP (cIAP1-BIR3): higher affinity binding to cIAP1 and cIAP2 than XIAP |
| CC[C@H](C)[C@H](NC(=O)[C@H](C)NC)C(=O)N1CCC[C@H]1C(=O)N[C@@H]1CCCc2ccccc21 [compound 2] | 1.11 | 90 | 40 nM | 2.08 | binding affinity for cIAP1 and cIAP2 compared with XIAP (cIAP1-BIR3): higher affinity binding to cIAP1 and cIAP2 than XIAP |
| CC(C)[C@H](NC(=O)[C@H](C)N)C(=O)N[C@@H](C)C(=O)Nc1cccc2ccccc12 [compound 17] | 3.77 | 980 | 1230 nM | 5.98 |  |
| CC[C@H](N)C(=O)N[C@H](C(=O)N[C@@H](C)C(=O)Nc1cccc2ccccc12)C(C)C [compound 20] | 24.9 | 5290 | 4770 nM | 43.8 |  |
| CN[C@@H](C)C(=O)N[C@H](C(=O)N1CCC[C@H]1C(=O)NNc1ccccc1)C(C)C [compound 22] | 3.62 | 560 | 260 nM | 5.43 |  |
| CN[C@@H](C)C(=O)N[C@H](C(=O)N[C@@H](CCCN=C(N)N)C(=O)NNc1ccccc1)C(C)C [compound 28] | 4.39 | 1420 | 1970 nM | 15.4 |  |
| CN[C@@H](C)C(=O)N[C@@H](CCC(=O)O)C(=O)N[C@@H](C)C(=O)NNc1ccccc1 [compound 29] | 7.67 | 23000 | 10900 nM | 25.1 |  |
| CN[C@@H](C)C(=O)N[C@H](C(=O)N[C@@H](CCCNC(=O)OCc1ccccc1)C(=O)NNc1ccccc1)C(C)C [compound 31] |  | 1290 |  | 2.93 |  |
| CN[C@@H](C)C(=O)N[C@H](C(=O)N[C@@H](CCCN)C(=O)NNc1ccccc1)C(C)C [compound 32] | 3.82 | 2170 | 4010 nM | 10.9 |  |
| CN[C@@H](C)C(=O)N[C@H](C(=O)N[C@@H](CCCCN)C(=O)NNc1ccccc1)C(C)C [compound 35] | 2.18 | 1350 | 2830 nM | 5.09 |  |
| CC(C)[C@H](NC(=O)[C@H](C)N)C(=O)N1CCC[C@H]1C(=O)NNc1ccccc1 [compound 36] | 6.11 | 570 | 340 nM | 12.9 |  |
| AVPIAQK-NH2 [SMAC-7-mer, AVPIAQK, reference compound] | 15.4 | 420 | 450 nM | 26.4 |  |

Further lines, with some results ahead:

| Ki (cIAP1-BIR2) [µM] | Ki (cIAP2-BIR3) [nM] | Ki (cIAP1-BIR3; [3]) | Ki (cIAP2-BIR2) [µM] | Compound | further results |
| --- | --- | --- | --- | --- | --- |
| 2.34 | 60 | 60 nM | 5.27 | CC[C@H](NC(=O)[C@H](C)NC)C(=O)N1CCC[C@H]1C(=O)N[C@@H]1CCCc2ccccc21 [compound 3] | binding affinity for cIAP1 and cIAP2 compared with XIAP (cIAP1-BIR3): higher affinity binding to cIAP1 and cIAP2 than XIAP |
| 1.33 | 120 | 60 nM | 4.35 | CN[C@@H](C)C(=O)N[C@@H](CC(C)C)C(=O)N1CCC[C@H]1C(=O)N[C@@H]1CCCc2ccccc21 [compound 5] |  |
| 2.16 | 190 | 80 nM | 6.38 | CN[C@@H](C)C(=O)N[C@@H](CC(=O)OC)C(=O)N1CCC[C@H]1C(=O)N[C@@H]1CCCc2ccccc21 [compound 6] |  |
| > 57.2 | 12600 | 9400 nM | > 56.7 | CN[C@@H](C)C(=O)N[C@@H](CC(=O)O)C(=O)N1CCC[C@H]1C(=O)N[C@@H]1CCCc2ccccc21 [compound 7] |  |
| 1.26 | 150 | 80 nM | 4.07 | CN[C@@H](C)C(=O)N[C@@H](CCC(N)=O)C(=O)N1CCC[C@H]1C(=O)N[C@@H]1CCCc2ccccc21 [compound 8] |  |
| 0.81 | 70 | 50 nM | 2.62 | CN[C@@H](C)C(=O)N[C@H](C(=O)N[C@@H](CCCNC(N)=N[N+](=O)[O-])C(=O)N[C@@H]1CCCc2ccccc21)C(C)C [compound 9] |  |
| 1.41 | 220 | 280 nM | 2.07 | CN[C@@H](C)C(=O)N[C@H](C(=O)N[C@@H](CCCNC(=O)OCc1ccccc1)C(=O)N[C@@H]1CCCc2ccccc21)C(C)C [compound 10] |  |
| 3.25 | 550 | 720 nM | 5.5 | CN[C@@H](C)C(=O)N[C@H](C(=O)N[C@@H](CCC(N)=O)C(=O)N[C@@H]1CCCc2ccccc21)C(C)C [compound 11] |  |
| 3.31 | 500 | 200 nM | 5.46 | CN[C@@H](C)C(=O)N[C@H](C(=O)N[C@@H](CCCCNC(=O)OCc1ccccc1)C(=O)N[C@@H]1CCCc2ccccc21)C(C)C [compound 12] |  |
| 1.47 | 70 | 90 nM | 3.75 | CN[C@@H](C)C(=O)N[C@H](C(=O)N[C@@H](CCCN)C(=O)N[C@@H]1CCCc2ccccc21)C(C)C [compound 13] |  |
| 3.09 | 300 | 230 nM | 6.81 | CN[C@@H](C)C(=O)N[C@H](C(=O)N[C@@H](CO)C(=O)N[C@@H]1CCCc2ccccc21)C(C)C [compound 14] |  |
| 8.96 | 5100 | 3230 nM and 3200 nM | 17.5 | CN[C@@H](C)C(=O)N[C@H](C(=O)N[C@@H](C)C(=O)Nc1cccc2ccccc12)C(C)C [compound 15] | EC50 ([2]; representative curves, 10 nM TNF, 24 h, CellTiter-Glo, read-out: EC50, sensitization of PC-3 tumor cells to TNF (Fig 5a)): 5300 nM |
| 1.73 | 200 | 180 nM and 200 nM | 3.35 | CN[C@@H](C)C(=O)N[C@H](C(=O)N1CCC[C@@H]1C(=O)Nc1cccc2ccccc12)C(C)C [compound 16] |  |
| 8.33 | 17200 | 4370 nM | 22.4 | CC(C)[C@H](NC(=O)[C@@H](N)CO)C(=O)N[C@@H](C)C(=O)Nc1cccc2ccccc12 [compound 19] |  |
| 2.77 | 990 | 850 nM | 4.79 | CC(C)[C@H](NC(=O)[C@H](C)N)C(=O)N[C@@H](CCCNC(=O)OCc1ccccc1)C(=O)Nc1cccc2ccccc12 [compound 21] |  |
| 7.39 | 8290 | 6130 nM and 6100 nM | 13.6 | CN[C@@H](C)C(=O)N[C@H](C(=O)N[C@@H](C)C(=O)NNc1ccccc1)C(C)C [compound 23] | TNF EC50 ([2]; PC-3 cells, 10 nM TNF, 24 h, cell viability): IN^b; cytotoxicity against PC-3 cells with TNF ([2]; in words): essentially no cytotoxicity; LT-α EC50 ([1]; PC-3 cells, ~90 pM LT-α, 24 h, cell viability): IN^b; cytotoxicity against PC-3 cells with LT-α ([1]; in words): essentially no cytotoxicity |
|  |  | 80 nM |  | CN[C@@H](C)C(=O)N[C@H](C(=O)N1CCC[C@H]1C(=O)Nc1ccc2ccccc2n1)C(C)C [compound 39] | EC50 ([2]; PC-3 cells, 10 nM TNF, 24 h, cell viability, read-out: TNF EC50): 70 nM; EC50 ([1]; PC-3 cells, ~90 pM LT-α, 24 h, cell viability, read-out: LT-α EC50): 30 nM |
